Laboratory results published in the supplement of paper PMC13380429.
± gives the standard deviation of the averaged measurements.

Columns and labels:
Conditions in all cases: 72 h
Caco-2 [1] = test: cell viability relative to DMSO; higher = less toxic
Calu-3 [2] = test: as above
HepG2 [3] = test: as above
U2OS [4] = test: as above
Vero E6 [5] = test: as above
Caco-2 [6] = test: relative viability EC50 (midpoint between 100% and the lowest measured viability); higher = less toxic
Calu-3 [7] = test: as above
HepG2 [8] = test: as above
U2OS [9] = test: as above
Vero E6 [10] = test: as above
Caco-2 [11] = test: drug sensitivity score (DSS) for viability; higher = more toxic; extreme values may be limits of the assay
Calu-3 [12] = test: as above
HepG2 [13] = test: as above
U2OS [14] = test: as above
Vero E6 [15] = test: as above

Compound	cell viability (Caco-2 [1]; 1 nM) [%]	cell viability (Caco-2 [1]; 10 nM) [%]	cell viability (Caco-2 [1]; 100 nM) [%]	cell viability (Caco-2 [1]; 1000 nM) [%]	cell viability (Caco-2 [1]; 10000 nM) [%]	cell viability (Calu-3 [2]; 1 nM) [%]	cell viability (Calu-3 [2]; 10 nM) [%]	cell viability (Calu-3 [2]; 100 nM) [%]	cell viability (Calu-3 [2]; 1000 nM) [%]	cell viability (Calu-3 [2]; 10000 nM) [%]	cell viability (HepG2 [3]; 1 nM) [%]	cell viability (HepG2 [3]; 10 nM) [%]	cell viability (HepG2 [3]; 100 nM) [%]	cell viability (HepG2 [3]; 1000 nM) [%]	cell viability (HepG2 [3]; 10000 nM) [%]	cell viability (U2OS [4]; 1 nM) [%]	cell viability (U2OS [4]; 10 nM) [%]	cell viability (U2OS [4]; 100 nM) [%]	cell viability (U2OS [4]; 1000 nM) [%]	cell viability (U2OS [4]; 10000 nM) [%]	cell viability (Vero E6 [5]; 1 nM) [%]	cell viability (Vero E6 [5]; 10 nM) [%]	cell viability (Vero E6 [5]; 100 nM) [%]	cell viability (Vero E6 [5]; 1000 nM) [%]	cell viability (Vero E6 [5]; 10000 nM) [%]	relative viability EC50 (Caco-2 [6]) [µM]	relative viability EC50 (Calu-3 [7]) [µM]	relative viability EC50 (HepG2 [8]) [µM]	relative viability EC50 (U2OS [9]) [µM]	relative viability EC50 (Vero E6 [10]) [µM]	drug sensitivity score (Caco-2 [11])	drug sensitivity score (Calu-3 [12])	drug sensitivity score (HepG2 [13])	drug sensitivity score (U2OS [14])	drug sensitivity score (Vero E6 [15])
Cc1cc(C(=O)CN2CCCC2)c(C)n1-c1ccc(F)cc1 [IU1]	103	105	101	108	99.1	112	99.9	102	109	104	95.7	100	101	102	103	92.3	98.8	95.5	96.2	109	99.2	97.8	98.4	94.6	105	> 10	> 10	> 10	> 10	> 10	0	0	0	0	0
C=C1C[C@]23C[C@@]1(O)CC[C@H]2[C@@]12C=C[C@H](O)[C@@](C)(C(=O)O1)[C@H]2[C@@H]3C(=O)O [MD-920]	99.9	85.4	104	95.1	90.3	96.1	106	108	105	91.1	95.5	107	94.2	99	104	95.1	96.1	104	101	97	100	94.6	86.7	102	116	> 10	> 10	> 10	> 10	> 10	0	0	0	0	0
CCN1C[C@H](C)n2c(c(O)c3c(=O)n(Cc4ccc(F)c(Cl)c4)nc(C(=O)NC)c32)C1=O [MK-2048]	97.2	96	93.2	94.7	87.4	91.3	90.2	92.3	98.2	93.7	110	106	93.9	100	98.4	101	96.3	102	98.5	97.8	101	100	105	101	98	> 10	> 10	> 10	> 10	> 10	0	0	0	0	0
O[C@@](Cc1nc(CC2(C(F)(F)F)CC2)c[nH]1)(c1ccc(-n2cccn2)cc1)C(F)(F)F [MK-5046]	102	115	98.8	97	88.4	107	95.3	105	110	87.5	99.5	101	104	94.7	96.6	96	96.9	92.8	96.3	90.8	97.8	96.7	98.5	100	98.2	> 10	> 10	> 10	> 10	> 10	0.1	0	0	0	0
Clc1cccc(Nc2nnc(-c3ccccc3)c3ccccc23)c1 [MY-5445]	93	104	94.7	104	97.9	95.2	97.7	88.2	104	104	104	98.4	107	104	103	95	98.2	95.6	99.8	101	96.6	96.7	95.8	92.1	106	> 10	> 10	> 10	> 10	> 10	0	0	0	0	0
Cc1ncc(COP(=O)([O-])[O-])c(CN(CCN(CC(=O)O)Cc2c(COP(=O)([O-])O)cnc(C)c2O)CC(=O)O)c1O.[Mn].[Na+].[Na+].[Na+] [Mangafodipir (trisodium)]	95.1	99.5	94.5	108	135	91.5	107	104	87.6	103	110	89.4	105	101	98.4	95.1	100	94.7	93.4	101	111	99.7	107	97	99.2	> 10	> 10	> 10	> 10	> 10	0	0	0	0	0
Cc1cc(=O)n(-c2ccccc2)[nH]1 [N-demethylantipyrine]	99.3	97.2	102	84.8	99.8	102	107	98.5	97	106	94.1	106	95.3	107	93.8	101	99.7	98.7	102	98.5	104	101	94.2	95.2	102	> 10	> 10	> 10	> 10	> 10	0	0	0	0	0
CN[C@H](CC(=O)O)C(=O)O [NMDA]	101	97.5	103	103	88	85.4	88.6	87.7	105	89.4	99.9	102	110	104	102	95.1	96.8	91.7	102	91.5	107	107	104	99.5	107	> 10	> 10	> 10	> 10	> 10	0	0	0	0	0
On1ncc(C2CCNCC2)c1-c1cccc(-c2ccccc2)c1 [PHP-501]	100	97.3	93	102	94.6	106	102	91.1	97.1	107	108	99.6	105	97.4	100	95.5	102	98.1	109	106	97.7	92.1	92	89.9	111	> 10	> 10	> 10	> 10	> 10	0	0	0	0	0
[N-]=[N+]=N[C@]1(CO)O[C@@H](n2ccc(N)nc2=O)[C@H](O)[C@@H]1O [R-1479]	98.2 ± 3.6	96.2 ± 4	90.7	98.6 ± 11	96.7 ± 9.1	91.35 ± 0.78	99.5 ± 4.4	102.8 ± 0.78	100 ± 2.3	93 ± 1.5	112 ± 7.2	94.25 ± 0.92	98.3 ± 2.8	94.7 ± 1.7	96.2 ± 3.6	98 ± 0.85	102 ± 2.8	102 ± 1.3	105 ± 2.5	100 ± 0.14	99 ± 3.8	96.4 ± 1.7	97.8 ± 1.7	94.5 ± 2.8	103 ± 6.7	> 10	> 10	> 10	> 10	> 10	0	0	0	0	0
COc1cc2c(cc1O)C(CCc1ccc(Cl)cc1)N(C)CC2 (stereo not given) [Ro-04-5595]	102	97.2	94.4	100	102	93	94.6	102	96.6	92.1	103	101	102	99	80.1	100	96.2	95.8	95.1	97.9	106	108	101	102	90.1	> 10	> 10	> 10	> 10	> 10	0	0	0.7	0	0
Cc1ncc(CN2CC=C(c3ccccc3)CC2)c(N)n1 [Ro-10-5824]	102	105	96.8	97.1	96.8	103	95.6	103	99.5	99.5	91.8	104	108	115	112	101	95.3	102	95.8	96.9	92.7	108	88.5	99.2	108	> 10	> 10	> 10	> 10	> 10	0	0	0	0	0
COc1ccc(-n2nc(C(F)(F)F)cc2-c2ccc(Cl)cc2)cc1 [SC-560]	101	99.1	95.7	92.2	86.6	104	104	109	95.3	108	106	104	104	91	87	102	99.9	104	98.8	100	98.2	105	92.6	100	44.3	> 10	> 10	> 10	> 10	3.18	0.2	0	0.6	0	3
CC1(C)O[C@@H]2C[C@H]3[C@@H]4CCC5=CC(=O)C=C[C@]5(C)[C@@]4(F)[C@@H](O)C[C@]3(C)[C@]2(C(=O)CO)O1 [TRIAMCINOLONE ACETONIDE]	94.2	96.2	96.8	89	93.1	98.4	95.4	87.6	103	106	103	91.3	94.6	101	93	99.4	95.7	94.6	90.7	95.2	102	99	95.3	97.4	100	> 10	> 10	> 10	> 10	> 10	0	0	0	0	0
